The test system of data set [1] is Systemic and Coronary Vasculature of the Pig. Description: Hemodynamic effects in chronically instrumented, anesthetized swine. It counts as in vivo. Here is the method:
Chronically instrumented female swine (70 kg, n=10) (ascending aortic and left anterior descending (LAD) coronary artery transit time flow probes, carotid and internal jugular pressures) were administered five doses of 1-arginine in five-minute intervals. After a period of recovery, four doses of nitroglycerin (1, 2, 3, 4 μg/kg/min) were infused. Sildenafil (100 mg IV) was administered and the 1-arginine and nitroglycerin administrations repeated.
After approval by the Institutional Animal Care and Use Committee, 70 kg female domestic swine (70.5±2.6 kg) were sedated with ketamine (25 mg/kg IM). Mask induction with isoflurane was followed by intubation with an endotracheal tube (6.0 ID 45 cm long). An angiocathether (20 gauge) was placed in an ear vein for IV fluid administration. Prophylactic antibiotics (cefazolin 1 gram IV prior to incision followed by cephalexin 500 mg PO BID) were given. The animal was ventilated with 100% oxygen and isoflurane to maintain anesthesia. A left thoracotomy (T4-5) was performed under sterile conditions. Transonics® (Ithaca, N.Y.) transit time flow probes were placed on the ascending aorta (model 28A) and the proximal left anterior descending coronary artery (3 mm, model 3S). The flow probe cables were tunneled to the animal's back. The thoracotomy was closed and air evacuated with a chest tube. The animals were given ketorolac (30 mg IV) followed by buprenorphine (0.3 to 0.6 mg IM Q8 hours for 5 days) for postoperative pain. The animals were allowed to recover for a minimum of two days before experimentation.
Previously instrumented swine were sedated with ketamine (25 mg/kg IM) and mask-induced with isoflurane. An angiocatheter (20 gauge) was placed in an ear vein for IV fluid administration. Animals were intubated (6.0 ID 45 cm long tube) and ventilated with 100% oxygen and isoflurane. Prophylactic antibiotics were given (cefazolin 1 gm IV). The animal's neck was then opened using sterile technique. Angiocatheters (16 gauge) were placed in the left and right internal jugular veins for central venous pressure monitoring and for drug and fluid infusions. An angiocatheter (20 gauge) was placed in the common carotid artery for blood sampling and pressure measurement. Arterial and central venous pressures were measured with disposable pressure transducers (Abbott Critical Care Systems Transpac® IV, North Chicago, Ill.) and the Transonics® Transit Time Flow meter (Model 206 with (-R) pRessure Option, Ithaca, N.Y.). ECG was monitored (Electronics for Medicine Monitor Model OM). The neck was closed. A supra-pubic bladder catheter was placed using sterile technique for urinary drainage. Data was recorded at 100 Hz using WinDaq data acquisition software (Transonics Systems, Ithaca, N.Y.). The pressure transducers were calibrated using a mercury manometer. Flow probes were calibrated prior to use.
Fentanyl (2 mg), diazepam (20 mg), and pancuronium (10 mg) were administered as a bolus. Isoflurane was simultaneously discontinued.

The nature of data set [2]: L-arginine levels after oral or intravenous L-arginine supplementation. The following applies: preliminary trial, bolus 30 grams over 15 minutes; from 81±8. It counts as in vivo. The procedure:
With respect to the coronary disease applications, we note that L-arginine levels without supplementation are about 116±14 mmol/L and oral administration elevates the levels to about 224±26 mmol/L with improvement in vasomotor function. […] Intravenous infusions (10 mg/kg/min) raised L-arginine levels from about 102±5 to about 8172±122 mmol/L and caused vasodilation. In our preliminary trial a bolus of L-arginine (30 grams over 15 minutes) elevated levels (81±8 to 6900±600 μmol). In preferred embodiments, there were two fundamentally different ranges of L-Arginine levels achieved. Levels that were 1.5 to 2 times baseline and levels that were 50 to 100 times baseline.

The nature of data set [3]: L-arginine pharmacokinetic parameters from preliminary clinical and animal data. The data set is classed as in vivo. The procedure:
Computer simulation of the predicted L-arginine levels from the high dose (1 mcg/kg/min) yield levels of 420 mmol/L. (T1/2=10 minutes, Volume distribution=0.36 L/kg: obtained from our preliminary clinical and animal data). Computer simulations of the low dose (0.5 mcg/kg/min) yield levels of 260 mmol/L. These doses are in the range to improve endothelial function and prevent vasospasm but will not cause significant vasodilation.

For data set [4] the following is noted: cited from earlier work.
Data set [5] can be described thus: Serum L-arginine and L-citrulline concentrations after IV L-arginine boluses. The data set is classed as in vivo, swine. Here is the method:
2. L-Arginine Administration: A bolus dose of 1-arginine (60 cc of 10% 1-arginine (6 grams)) was administered intravenously. Five minutes later a blood sample was taken. The dose was then repeated. This procedure was repeated a total of five times (total of 300 cc of 10% 1-arginine (30 grams) administered). Thirty minutes were allowed to elapse and then a final blood sample collected.
Blood samples were collected in serum separator tubes and immediately placed on ice. Tubes were centrifuged for 20 minutes and the serum removed and stored in cryovials at −80° C. L-arginine and 1-citrulline levels were quantified by the Protein Structure Lab at the University of California, Davis (Davis, Calif.) with an ion-exchange chromatographer (Beckman 6300 aminoacid analyzer, Fullerton, Calif.). Serum osmolality was measured using an osmometer (Advanced Instruments, Needleham Heights, Mass.) by the Veternary Medical Teaching Hospital Diagnostic Laboratories (Davis, Calif.).

Where [6] appears, read: l-arginine alone, five 6 gram IV boluses at 5 min intervals, mean±SE.
The mark [7] stands for this setting: first administration of sildenafil, 100 mg IV bolus, mean±SE.
[8] abbreviates: first dose of sildenafil, 100 mg IV bolus.

Read-outs that look alike come from different tables or passages of the source.

For `Cl.N=C(N)NCCC[C@H](N)C(=O)O` [L-Arginine, 1-arginine hydrochloride], the “CO, Max Effect” value in data set [1] (setting [6]) is 8.9 ± 0.5 L/min. Besides, in data set [1] (setting [6]), the “CVP, Max Effect” value is listed as 12.0 ± 1.0 mmHg. Moreover, the “CVR, Max Effect” value in data set [1] (setting [6]) is 89.1 ± 4.7 dynes*sec*cm^−5*10^3. Moreover, the “HR, Max Effect” value in data set [1] (setting [6]) worked out at 106.5 ± 6.7 beats/min. In data set [1] (setting [6]), the “MAP, Max Effect” value is reported as 107.4 ± 6.4 mmHg. In data set [1] (setting [6]), the “SVR, Max Effect” value is reported as 825.0 ± 39.3 dynes*sec*cm^−5. Moreover, the “LAD Flow, Max Effect” value in data set [1] (l-arginine alone, five 6 gram IV boluses at 5 min intervals, mean±SE, hydrochloride) came to 66.7 ± 6.6 mL/min; in data set [1] (l-arginine alone, five 6 gram IV boluses at 5 min intervals, mean±SE, listed as L-arginine, hydrochloride), 66.7 ± 6.6 mL/min. In addition, the “change in coronary blood flow relative to the change expected for a similar change in osmolality” value in data set [1] (l-arginine fifth dose compared with mannitol) stood at 2.6 times. The L-arginine levels was 6900 ± 600 µmol in data set [2]; “about 8172±122 mmol/L” in data set [4] (intravenous infusions 10 mg/kg/min, from about 102±5); “about 224±26 mmol/L” in data set [4] (oral administration, without supplementation about 116±14). Further, the T1/2 in data set [3] worked out at 10 min. In addition, the Volume distribution in data set [3] turned out to be 0.36 L/kg. The “Serum [L-Arginine]” value in data set [5] (5 min after Dose #1 (6 grams IV), no sildenafil) worked out at 1987.0 ± 116.8 µM; in data set [5] (5 min after Dose #2 (6 grams IV each), no sildenafil), 3139.2 ± 129.6 µM; in data set [5] (5 min after Dose #3 (6 grams IV each), no sildenafil), 4143.3 ± 205.4 µM; in data set [5] (5 min after Dose #4 (6 grams IV each), no sildenafil), 5232.7 ± 364.6 µM; in data set [5] (5 min after Dose #5 (total 30 grams IV), no sildenafil), 5922.1 ± 307.4 µM; in data set [5] (30 min Post last dose, no sildenafil), 2592.7 ± 268.9 µM. For the same compound, the “Serum [L-Citrulline]” value came to 54.7 ± 5.2 µM in data set [5] (5 min after L-arginine Dose #1 (6 grams IV), no sildenafil); 53.2 ± 4.2 µM in data set [5] (5 min after L-arginine Dose #2, no sildenafil); 54.9 ± 4.4 µM in data set [5] (5 min after L-arginine Dose #3, no sildenafil); 61.5 ± 6.7 µM in data set [5] (5 min after L-arginine Dose #4, no sildenafil, hydrochloride); 61.5 ± 6.7 µM in data set [5] (5 min after L-arginine Dose #4, no sildenafil, listed as 1-arginine, hydrochloride); 60.2 ± 5.9 µM in data set [5] (5 min after L-arginine Dose #5, no sildenafil). For the same compound, in data set [5] (30 min Post last L-arginine dose, no sildenafil), the “Serum [L-Citrulline]” value came to 60.5 ± 7.1 µM.

As to `O=[N+]([O-])OCC(CO[N+](=O)[O-])O[N+](=O)[O-]` [Nitroglycerin, nitroglycerin], in data set [1] (in vivo, iv), the “CO, Max Effect” value was 9.1 ± 0.7 L/min; the “CVP, Max Effect” value amounted to 9.9 ± 1.0 mmHg; the “CVR, Max Effect” value is 98.9 ± 9.8 dynes*sec*cm^−5*10^3; the “HR, Max Effect” value amounted to 128.3 ± 9.0 beats/min. In data set [1] (in vivo, iv), the “LAD Flow, Max Effect” value was 65.4 ± 6.7 mL/min; the “MAP, Max Effect” value was 103.9 ± 6.6 mmHg; the “SVR, Max Effect” value came to 882.8 ± 98.6 dynes*sec*cm^−5.

Regarding `CCCc1nn(C)c2c(=O)[nH]c(-c3cc(S(=O)(=O)N4CCN(C)CC4)ccc3OCC)nc12` [sildenafil], in data set [1] (setting [7]), the “LAD flow, peak” value came to 87.6 ± 7.3 mL/min; the “Mean arterial pressure, min.” value is on record as 78.7±7.0 mmHg; the “cardiac output, peak” value is 10.5 ± 0.8 L/min; the “central venous pressure, min.” value is recorded as 9.1±1.1 mmHg. Besides, in data set [1] (setting [7]), the “coronary vascular resistance, min.” value stood at 54.7±5.3 dynes*sec*cm^−5*10^3; the “heart rate, peak” value is given as 165.0±8.9 beats/min; the “systemic vascular resistance, min.” value was found to be 612.2±61.1 dynes*sec*cm^−5. Besides, in data set [1] (setting [8]), the “duration of effects on MAP, CVP, CVR, and SVR” value is recorded as “persisted through the fifteen-minute observation period”; the “duration of increase in cardiac output (disappeared after)” value is “three”; the “duration of increase in heart rate” value is reported as “about five”; the “increase in cardiac output” value is reported as 1.2 L/min. In data set [1] (sildenafil 100 mg IV before l-arginine boluses, P<0.05), the “effect of sildenafil on the l-arginine-induced change in LAD flow” value is given as “potentiated the effects of 1-arginine on LAD flow”. Further, the “time of peak hemodynamic effect following injection” value in data set [1] (sildenafil i.v. bolus) is “approximately two”.

(Values after patent publication US6476037B1, “L-arginine and phosphodiesterase (PDE) inhibitor synergism” (The Regents of the University of California, priority 2000, dated 2002).)
